In assay [1] the target is T1, dengue virus envelope protein 2 (DENV2) (Dengue virus type 2, UniProt P29990).
T1 construct: Dengue virus envelope protein 2 (DENV2) was purchased from the Native Antigen Company; purchased Native Antigen Company
As to the kind of experiment: SPR binding study of GlcA glycodendrimers on immobilized DENV2 (Biacore 3000, CM4 chip). Further details: species or system dengue virus serotype 2. The conditions noted are these: for SPR binding response: GD flowed at 100 μM over immobilized DENV2; for Kd: read-out: dissociation constant KD, steady-state analysis of SPR, 1:1 Langmuir model, immobilized DENV2, 25 °C. How it is done:
In order to evaluate the ability of GDs 4a–f, 9a–c, and 12a–c to interact with dengue virus envelope protein 2 (DENV2), an SPR binding study was carried out.
Compounds 4a–f, 9a–c, and 12a–c were flowed on immobilized DENV2 at a concentration of 100 μM (Figure 1).
Dengue virus envelope protein 2 (DENV2) was purchased from the Native Antigen Company. SPR sensor chips CM4 (carboxymethylated dextran) and other reagents used in SPR experiments were purchased from GE Healthcare. SPR experiments were performed with a Biacore 3000.
SPR experiments were performed at 25 °C with a Biacore 3000 (GE Healthcare). PBST (10 mm phosphate, pH 7.40, 150 mm NaCl, and 0.005% v/v surfactant P20) was used as a running buffer. A solution with the dengue virus serotype 2 protein (DENV2) was adjusted to 20 μg/mL in 10 mM citrate pH 4.00 buffer, and the protein was immobilized in flow cell 1 of a CM4 sensor chip by following the amine coupling method according to the manufacturer’s instructions. Prior to injection over the sensor chip, DENV2 was mixed with a 4-fold molar excess of HS, for 30 min at 4 °C, to protect the GAG-binding domains of the envelope protein. The immobilization response was 2000 RU, and then, the sensor surface was washed with 1 M NaCl to remove the bound HS. Sensor chip flow cell 2 was activated, blocked, and used as a reference surface. Blank samples and concentration series were injected on a CM4 chip at a flow rate of 40 μL/min for 180 s, and dissociation was registered for 180 s.
Initially, compounds 4a–f, 9a–c, and 12a–c were flowed on the immobilized DENV2 at a 100 μM concentration. Then different concentration of GDs (5–125 μM) were flowed on the immobilized DENV2 (compound 12b: 5–125 μM; 12c: 5–150 μM; 9b: 25–250 μM; 4c: 25-250 μM).25–250 μM). Data processing and analysis were carried out with Biaevaluation v.4.1.1 (GE Healthcare).
All signals were blank-subtracted, reference-corrected, and globally adjusted to an adequate kinetic model to obtain binding parameters. […] Instead, a steady-state analysis kinetic analysis was carried out assuming the 1:1 Langmuir model. The value of KA is obtained by fitting a plot of RU in the plateau region against the GD concentration, which generates the following equations. [drawing 1] [drawing 2] [drawing 3] [drawing 4] KD is calculated as the inverse of KA (KD = 1/KA).

A further assay has as its target DENV2 envelope protein. To be noted: SPR, same experimental conditions as current study; cited from earlier work. (In general: In SPR one partner is held on a chip, and binding of the other changes the refractive index at the surface.)

Compound `O=C(O)[C@H]1O[C@@H](OCCCn2cc(COc3cc(COc4cc(COCc5cc(OCc6cc(OCc7cn(CCCO[C@@H]8O[C@H](C(=O)O)[C@@H](O)[C@H](O)[C@H]8O)nn7)cc(OCc7cn(CCCO[C@@H]8O[C@H](C(=O)O)[C@@H](O)[C@H](O)[C@H]8O)nn7)c6)cc(OCc6cc(OCc7cn(CCCO[C@@H]8O[C@H](C(=O)O)[C@@H](O)[C@H](O)[C@H]8O)nn7)cc(OCc7cn(CCCO[C@@H]8O[C@H](C(=O)O)[C@@H](O)[C@H](O)[C@H]8O)nn7)c6)c5)cc(OCc5cc(OCc6cn(CCCO[C@@H]7O[C@H](C(=O)O)[C@@H](O)[C@H](O)[C@H]7O)nn6)cc(OCc6cn(CCCO[C@@H]7O[C@H](C(=O)O)[C@@H](O)[C@H](O)[C@H]7O)nn6)c5)c4)cc(OCc4cn(CCCO[C@@H]5O[C@H](C(=O)O)[C@@H](O)[C@H](O)[C@H]5O)nn4)c3)nn2)[C@H](O)[C@@H](O)[C@@H]1O` [9c] registered an SPR binding response in assay [1] of 0.0 RU.

On to `O=C(O)[C@H]1O[C@@H](OCCCn2cc(COc3cc(OCc4cn(CCCO[C@@H]5O[C@H](C(=O)O)[C@@H](O)[C@H](O)[C@H]5O)nn4)cc(OCc4cn(CCCO[C@@H]5O[C@H](C(=O)O)[C@@H](O)[C@H](O)[C@H]5O)nn4)c3)nn2)[C@H](O)[C@@H](O)[C@@H]1O` [4c], for which the SPR binding response in assay [1] amounted to 60.8 RU.

With `O=C(O)[C@H]1O[C@@H](OCCCn2cc(COc3cc4c5cc(OCc6cn(CCCO[C@@H]7O[C@H](C(=O)O)[C@@H](O)[C@H](O)[C@H]7O)nn6)c(OCc6cn(CCCO[C@@H]7O[C@H](C(=O)O)[C@@H](O)[C@H](O)[C@H]7O)nn6)cc5c5cc(OCc6cn(CCCO[C@@H]7O[C@H](C(=O)O)[C@@H](O)[C@H](O)[C@H]7O)nn6)c(OCc6cn(CCCO[C@@H]7O[C@H](C(=O)O)[C@@H](O)[C@H](O)[C@H]7O)nn6)cc5c4cc3OCc3cn(CCCO[C@@H]4O[C@H](C(=O)O)[C@@H](O)[C@H](O)[C@H]4O)nn3)nn2)[C@H](O)[C@@H](O)[C@@H]1O` [4e], the SPR binding response in assay [1] was 0.0 RU. For `O=C(O)[C@H]1O[C@@H](OCCCn2cc(COc3cc(COCC(COCc4cc(OCc5cn(CCCO[C@@H]6O[C@H](C(=O)O)[C@@H](O)[C@H](O)[C@H]6O)nn5)cc(OCc5cn(CCCO[C@@H]6O[C@H](C(=O)O)[C@@H](O)[C@H](O)[C@H]6O)nn5)c4)(COCc4cc(OCc5cn(CCCO[C@@H]6O[C@H](C(=O)O)[C@@H](O)[C@H](O)[C@H]6O)nn5)cc(OCc5cn(CCCO[C@@H]6O[C@H](C(=O)O)[C@@H](O)[C@H](O)[C@H]6O)nn5)c4)COCc4cc(OCc5cn(CCCO[C@@H]6O[C@H](C(=O)O)[C@@H](O)[C@H](O)[C@H]6O)nn5)cc(OCc5cn(CCCO[C@@H]6O[C@H](C(=O)O)[C@@H](O)[C@H](O)[C@H]6O)nn5)c4)cc(OCc4cn(CCCO[C@@H]5O[C@H](C(=O)O)[C@@H](O)[C@H](O)[C@H]5O)nn4)c3)nn2)[C@H](O)[C@@H](O)[C@@H]1O` [12c], in assay [1], the SPR binding response is listed as 153 RU and the Kd (in general, the concentration at which binding is half-saturated) was 624 nM. On to `O=C(O)[C@H]1O[C@@H](OCCCn2cc(COc3cc(COCCN(CCOCc4cc(OCc5cn(CCCO[C@@H]6O[C@H](C(=O)O)[C@@H](O)[C@H](O)[C@H]6O)nn5)cc(OCc5cn(CCCO[C@@H]6O[C@H](C(=O)O)[C@@H](O)[C@H](O)[C@H]6O)nn5)c4)CCOCc4cc(OCc5cn(CCCO[C@@H]6O[C@H](C(=O)O)[C@@H](O)[C@H](O)[C@H]6O)nn5)cc(OCc5cn(CCCO[C@@H]6O[C@H](C(=O)O)[C@@H](O)[C@H](O)[C@H]6O)nn5)c4)cc(OCc4cn(CCCO[C@@H]5O[C@H](C(=O)O)[C@@H](O)[C@H](O)[C@H]5O)nn4)c3)nn2)[C@H](O)[C@@H](O)[C@@H]1O` [12b], for which, in assay [1], the SPR binding response is reported as 203.4 RU and the Kd was determined as 487 nM.

In turn, `O=C(O)[C@H]1O[C@@H](OCCCn2cc(CN(Cc3cn(CCCO[C@@H]4O[C@H](C(=O)O)[C@@H](O)[C@H](O)[C@H]4O)nn3)Cc3cn(CCCO[C@@H]4O[C@H](C(=O)O)[C@@H](O)[C@H](O)[C@H]4O)nn3)nn2)[C@H](O)[C@@H](O)[C@@H]1O` [12a] gave an SPR binding response in assay [1] of 9.8 RU. Same read-out and setting: the figure for `O=C(O)[C@H]1O[C@@H](OCCCn2cc(COc3cc(COCc4cc(OCc5cn(CCCO[C@@H]6O[C@H](C(=O)O)[C@@H](O)[C@H](O)[C@H]6O)nn5)cc(OCc5cn(CCCO[C@@H]6O[C@H](C(=O)O)[C@@H](O)[C@H](O)[C@H]6O)nn5)c4)cc(OCc4cn(CCCO[C@@H]5O[C@H](C(=O)O)[C@@H](O)[C@H](O)[C@H]5O)nn4)c3)nn2)[C@H](O)[C@@H](O)[C@@H]1O` [9a] is 5.0 RU; for `O=C(O)[C@H]1O[C@@H](OCCCn2cc(COc3cc(COc4cc(OCc5cc(OCc6cn(CCCO[C@@H]7O[C@H](C(=O)O)[C@@H](O)[C@H](O)[C@H]7O)nn6)cc(OCc6cn(CCCO[C@@H]7O[C@H](C(=O)O)[C@@H](O)[C@H](O)[C@H]7O)nn6)c5)cc(OCc5cc(OCc6cn(CCCO[C@@H]7O[C@H](C(=O)O)[C@@H](O)[C@H](O)[C@H]7O)nn6)cc(OCc6cn(CCCO[C@@H]7O[C@H](C(=O)O)[C@@H](O)[C@H](O)[C@H]7O)nn6)c5)c4)cc(OCc4cn(CCCO[C@@H]5O[C@H](C(=O)O)[C@@H](O)[C@H](O)[C@H]5O)nn4)c3)nn2)[C@H](O)[C@@H](O)[C@@H]1O` [4d] it is 0.3 RU. As to heparin [reference compound], the Kd on DENV2 envelope protein was 56 nM. For the same compound, the “fold difference of KD of heparin versus GDs 12b and 12c” value in assay [1] (heparin KD 56 nM vs 12b and 12c KD) is 8.6–11 fold. As to `O=C(O)[C@H]1O[C@@H](OCCCn2cc(COc3cc(COCc4cc(OCc5cn(CCCO[C@@H]6O[C@H](C(=O)O)[C@@H](O)[C@H](O)[C@H]6O)nn5)c(OCc5cn(CCCO[C@@H]6O[C@H](C(=O)O)[C@@H](O)[C@H](O)[C@H]6O)nn5)c(OCc5cn(CCCO[C@@H]6O[C@H](C(=O)O)[C@@H](O)[C@H](O)[C@H]6O)nn5)c4)cc(OCc4cn(CCCO[C@@H]5O[C@H](C(=O)O)[C@@H](O)[C@H](O)[C@H]5O)nn4)c3OCc3cn(CCCO[C@@H]4O[C@H](C(=O)O)[C@@H](O)[C@H](O)[C@H]4O)nn3)nn2)[C@H](O)[C@@H](O)[C@@H]1O` [9b], in assay [1], the SPR binding response stood at 68.5 RU and the Kd came out at 1750 nM.

Values taken from paper PMC10797590, “Exploring Rigid and Flexible Scaffolds to Develop Potent Glucuronic Acid Glycodendrimers for Dengue Virus Inhibition” (Bioconjugate Chemistry, 2023).
